# Source: patent US9145407B2, “Sulfonamide compounds” (Pfizer Limited, priority 2010, dated 2015)
# Structures can show the parent of a compound that is named as a salt.
# Target: T1, Nav1.7 (or SCN9A) channel (Homo sapiens, UniProt Q15858)
# T1 construct: expressed in transfected cells; host or cells: HEK cells, stably transfected, G-418 selected
# Assay: Nav1.7 (hSCN9A) whole-cell electrophysiology, PatchXpress platform
# Format: cell-based
# Settings: HEK cells stably expressing hSCN9A, held at V1/2 of inactivation, calculated from single point % inhibition, read-out: Nav1.7 EIC50 (estimated IC-50)
# Experimental: The ability of the compounds of list (I) to block the Nav1.7 (or SCN9A) channel was measured using the assay described below.
# Human Embryonic Kidney (HEK) cells were transfected with an hSCN9A construct using lipofectamine reagent (Invitrogen), using standard techniques. Cells stably expressing the hSCN9A constructs were identified by their resistance to G-418 (400 μg/ml). Clones were screened for expression using the whole-cell voltage-clamp technique.
# HEK cells stably transfected with hSCN9A were maintained in DMEM medium supplemented with 10% heat-inactivated fetal bovine serum and 400 μg/ml G-418 in an incubator at 37° C. with a humidified atmosphere of 10% CO2. For HTS, cells were harvested from flasks by trypsinization and replated in an appropriate multi-well plate (typically 96 or 384 wells/plate) such that confluence would be achieved within 24 hours of plating. For electrophysiological studies, cells were removed from the culture flask by brief trypsinization and re-plated at low density onto glass cover slips. Cells were typically used for electrophysiological experiments within 24 to 72 hours after plating.
# Cover slips containing HEK cells expressing hSCN9A were placed in a bath on the stage of an inverted microscope and perfused (approximately 1 ml/minutes) with extracellular solution of the following composition: 138 mM NaCl, 2 mM CaCl2, 5.4 mM KCl, 1 mM MgCl2, 10 mM glucose, and 10 mM HEPES, pH 7.4, with NaOH. […] The osmolarity of the extracellular and intracellular solutions was 300 mOsm/kg and 295 mOsm/kg, respectively. All recordings were made at room temperature (22-24° C.) using AXOPATCH 200B amplifiers and PCLAMP software (Axon Instruments, Burlingame, Calif.).
# hSCN9A currents in HEK cells were measured using the whole-cell configuration of the patch-clamp technique (Hamill et al., 1981). Uncompensated series resistance was typically 2 to 5 mega ohms and >85% series resistance compensation was routinely achieved. As a result, voltage errors were negligible and no correction was applied. Current records were acquired at 20 to 50 KHz and filtered at 5 to 10 KHz.
# HEK cells stably transfected with hSCN9A were viewed under Hoffman contrast optics and placed in front of an array of flow pipes emitting either control or compound-containing extracellular solutions. All compounds were dissolved in dimethyl sulfoxide to make 10 mM stock solutions, which were then diluted into extracellular solution to attain the final concentrations desired. […] The voltage-dependence of inactivation was determined by applying a series of depolarizing prepulses (8 sec long in 10 mV increments) from a negative holding potential. The voltage was then immediately stepped to 0 mV to assess the magnitude of the sodium current. Currents elicited at 0 mV were plotted as a function of prepulse potential to allow estimation of the voltage at which 50% of the channels were inactivated (midpoint of inactivation or V1/2). Compounds were tested for their ability to inhibit hSCN9A sodium channels by activating the channel with a 20 msec voltage step to 0 mV following an 8 second conditioning prepulse to the empirically determined V1/2. Compound effect (% inhibition) was determined by difference in current amplitude before and after application of test compounds. For ease of comparison, “estimated IC-50” (EIC50) values were calculated from single point electrophysiology data by the following equation, (tested concentration, uM)×(100−% inhibition/% inhibition). Inhibition values <20% and >80% were excluded from the calculation.
# Electrophysiological assays were conducted with PatchXpress 7000 hardware and associated software (Molecular Devices Corp). All assay buffers and solutions were identical to those used in conventional whole-cell voltage clamp experiments described above. hSCN9A cells were grown as above to 50%-80% confluency and harvested by trypsinization. […]
# T1 sequence (Q15858 whole entry): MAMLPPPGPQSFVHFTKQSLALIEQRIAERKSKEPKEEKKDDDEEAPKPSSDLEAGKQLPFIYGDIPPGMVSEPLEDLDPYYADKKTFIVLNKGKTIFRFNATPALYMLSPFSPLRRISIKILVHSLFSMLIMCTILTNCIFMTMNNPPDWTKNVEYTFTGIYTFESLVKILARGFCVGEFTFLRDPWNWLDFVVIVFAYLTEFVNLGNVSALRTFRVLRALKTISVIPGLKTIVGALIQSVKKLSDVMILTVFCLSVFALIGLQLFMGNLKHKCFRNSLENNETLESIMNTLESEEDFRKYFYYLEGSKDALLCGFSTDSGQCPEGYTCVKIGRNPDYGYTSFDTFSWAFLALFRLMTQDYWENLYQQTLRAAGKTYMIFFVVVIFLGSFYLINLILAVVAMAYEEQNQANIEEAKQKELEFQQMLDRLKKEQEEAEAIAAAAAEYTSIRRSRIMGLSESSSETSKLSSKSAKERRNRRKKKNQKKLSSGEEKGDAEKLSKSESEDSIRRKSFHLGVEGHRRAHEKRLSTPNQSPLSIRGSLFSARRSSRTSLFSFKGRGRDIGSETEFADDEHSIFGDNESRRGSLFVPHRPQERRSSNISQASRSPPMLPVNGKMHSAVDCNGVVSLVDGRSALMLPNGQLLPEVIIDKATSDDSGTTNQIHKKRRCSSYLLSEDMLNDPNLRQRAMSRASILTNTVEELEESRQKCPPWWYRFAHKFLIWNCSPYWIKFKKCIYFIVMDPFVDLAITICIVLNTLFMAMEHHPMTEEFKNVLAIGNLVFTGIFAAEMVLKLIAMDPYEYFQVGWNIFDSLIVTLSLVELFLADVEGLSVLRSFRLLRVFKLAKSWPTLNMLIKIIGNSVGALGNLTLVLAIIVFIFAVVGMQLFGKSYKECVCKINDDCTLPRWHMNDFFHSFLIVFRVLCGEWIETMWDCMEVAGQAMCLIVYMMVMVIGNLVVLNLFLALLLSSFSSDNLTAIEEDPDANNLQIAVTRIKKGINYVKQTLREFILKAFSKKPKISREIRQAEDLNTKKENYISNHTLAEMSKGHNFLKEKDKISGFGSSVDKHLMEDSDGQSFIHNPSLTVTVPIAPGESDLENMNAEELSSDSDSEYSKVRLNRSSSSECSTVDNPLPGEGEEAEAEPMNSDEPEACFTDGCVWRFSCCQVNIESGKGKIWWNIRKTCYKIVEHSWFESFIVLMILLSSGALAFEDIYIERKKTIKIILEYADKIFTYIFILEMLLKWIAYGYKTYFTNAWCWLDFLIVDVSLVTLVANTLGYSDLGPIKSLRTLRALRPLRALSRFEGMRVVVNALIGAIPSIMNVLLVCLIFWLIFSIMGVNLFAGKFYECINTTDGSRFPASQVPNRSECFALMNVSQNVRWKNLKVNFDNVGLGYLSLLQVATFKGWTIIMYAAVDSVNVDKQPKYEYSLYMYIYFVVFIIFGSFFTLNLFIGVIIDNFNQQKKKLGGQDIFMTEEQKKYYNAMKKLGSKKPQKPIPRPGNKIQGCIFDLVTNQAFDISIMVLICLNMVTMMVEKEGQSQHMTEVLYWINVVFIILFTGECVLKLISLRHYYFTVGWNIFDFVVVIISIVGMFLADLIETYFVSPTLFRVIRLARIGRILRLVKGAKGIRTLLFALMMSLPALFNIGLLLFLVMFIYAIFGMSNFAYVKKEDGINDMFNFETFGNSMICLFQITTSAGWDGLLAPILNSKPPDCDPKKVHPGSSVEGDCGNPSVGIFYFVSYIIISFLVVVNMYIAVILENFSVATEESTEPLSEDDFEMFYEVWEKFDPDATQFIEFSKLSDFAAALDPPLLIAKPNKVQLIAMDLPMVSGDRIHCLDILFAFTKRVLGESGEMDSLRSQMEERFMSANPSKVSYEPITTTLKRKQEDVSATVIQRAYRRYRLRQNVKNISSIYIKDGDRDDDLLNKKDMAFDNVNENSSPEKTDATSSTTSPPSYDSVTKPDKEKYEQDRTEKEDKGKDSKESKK
row,SMILES,IC50 [nM]
1,"O=S(=O)(Nc1cscn1)c1cc(Cl)c(Oc2ccc(Cl)cc2-c2ccnc(N3CCNCC3)n2)cc1F [Example 1, 5-Chloro-4-[4-chloro-2-(2-piperazin-1-ylpyrimidin-4-yl)phenoxy]-2-fluoro-N-1,3-thiazol-4-ylbenzenesulfonamide trifluoroacetate]",6.7
2,"O=S(=O)(Nc1nncs1)c1cc(Cl)c(Oc2ccc(Cl)cc2-c2ccnc(N3CCNCC3)n2)cc1F [Example 2, 5-Chloro-4-[4-chloro-2-(2-piperazin-1-ylpyrimidin-4-yl)phenoxy]-2-fluoro-N-1,3,4-thiadiazol-2-ylbenzenesulfonamide trifluoroacetate]",5
3,"O=S(=O)(Nc1cscn1)c1cc(Cl)c(Oc2cc(F)c(C(F)(F)F)cc2-c2ccnnc2)cc1F [Example 3, 5-Chloro-2-fluoro-4-[5-fluoro-2-pyridazin-4-yl-4-(trifluoromethyl)phenoxy]-N-1,3-thiazol-4-ylbenzenesulfonamide]",18
4,"O=S(=O)(Nc1cscn1)c1cc(Cl)c(Oc2cc(C(F)(F)F)c(F)cc2-c2ccnnc2)cc1F [Example 4, 5-Chloro-2-fluoro-4-[4-fluoro-2-pyridazin-4-yl-5-(trifluoromethyl)phenoxy]-N-1,3-thiazol-4-ylbenzenesulfonamide bis(trifluoroacetate)]",27.5
5,"Nc1cc(-c2cc(Cl)ccc2Oc2cc(F)c(S(=O)(=O)Nc3ncc(F)cn3)cc2Cl)ccn1 [Example 5, 4-[2-(2-Aminopyridin-4-yl)-4-chlorophenoxy]-5-chloro-2-fluoro-N-(5-fluoropyrimidin-2-yl)benzenesulfonamide dihydrochloride]",11.8
6,"Nc1cc(-c2cc(C(F)(F)F)ccc2Oc2cc(F)c(S(=O)(=O)Nc3ncc(F)cn3)cc2Cl)ccn1 [Example 6, 4-[2-(2-Aminopyridin-4-yl)-4-(trifluoromethyl)phenoxy]-5-chloro-2-fluoro-N-(5-fluoropyrimidin-2-yl)benzenesulfonamide 4-methylbenzenesulfonate]",8.5
7,"Nc1n[nH]cc1-c1cc(OC(F)(F)F)ccc1Oc1cc(F)c(S(=O)(=O)Nc2cscn2)cc1Cl [Example 8, 4-[2-(3-Amino-1H-pyrazol-4-yl)-4-(trifluoromethoxy)phenoxy]-5-chloro-2-fluoro-N-1,3-thiazol-4-ylbenzenesulfonamide dihydrochloride]",9.9
8,"Nc1[nH]ncc1-c1cc(F)ccc1Oc1cc(F)c(S(=O)(=O)Nc2cscn2)cc1Cl [Example 11, 4-[2-(5-Amino-1H-pyrazol-4-yl)-4-fluorophenoxy]-5-chloro-2-fluoro-N-1,3-thiazol-4-ylbenzenesulfonamide trifluoroacetate]",16.6
9,"O=S(=O)(Nc1cscn1)c1cc(Cl)c(Oc2ccc(OC(F)(F)F)cc2-c2ccnnc2)cc1F [Example 12, 5-Chloro-2-fluoro-4-[2-pyridazin-4-yl-4-(trifluoromethoxy)phenoxy]-N-1,3-thiazol-4-ylbenzenesulfonamide trifluoroacetate]",14.6
10,O=S(=O)(Nc1nncs1)c1cc(Cl)c(Oc2ccc(C(F)(F)F)cc2-c2ccnn2C2CNC2)cc1F [Example 13],1.1
11,"Cc1nnccc1-c1cc(C(F)(F)F)ccc1Oc1ccc(S(=O)(=O)Nc2ncns2)cc1C#N [Example 15, 3-Cyano-4-[2-(3-methylpyridazin-4-yl)-4-(trifluoromethyl)phenoxy]-N-1,2,4-thiadiazol-5-ylbenzenesulfonamide]",11.6
12,"O=S(=O)(Nc1cscn1)c1cc(F)c(Oc2ccc(Cl)cc2-c2ccnc(N3CCNCC3)n2)cc1F [Example 17, 4-[4-chloro-2-(2-piperazin-1-ylpyrimidin-4-yl)phenoxy]2,5-difluoro-N-1,3-thiazol-4-ylbenzenesulfonamide trifluoroacetate]",10

# More lines, in order of falling IC50, values ahead:
row,IC50 [nM],SMILES
1,24,"Nc1cc(-c2cc(Cl)ccc2Oc2ccc(S(=O)(=O)Nc3nncs3)cc2Cl)ccn1 [Example 9, 4-[2-(2-Aminopyridin-4-yl)-4-chlorophenoxy]-3-chloro-N-1,3,4-thiadiazol-2-ylbenzenesulfonamide trifluoroacetate]"
2,14.7,"Nc1cc(-c2cc(F)ccc2Oc2cc(F)c(S(=O)(=O)Nc3cscn3)cc2Cl)ccn1 [Example 7, 4-[2-(2-Aminopyridin-4-yl)-4-fluorophenoxy]-5-chloro-2-fluoro-N-1,3-thiazol-4-ylbenzenesulfonamide trifluoroacetate]"
3,10.8,"Nc1cc(-c2cc(Cl)ccc2Oc2cc(F)c(S(=O)(=O)Nc3cscn3)cc2Cl)ccn1 [Example 10, 4-[2-(2-Aminopyridin-4-yl)-4-chlorophenoxy]-5-chloro-2-fluoro-N-1,3-thiazol-4-ylbenzenesulfonamide trifluoroacetate]"
4,3.2,"Cc1cc(S(=O)(=O)Nc2ncns2)ccc1Oc1ccc(C(F)(F)F)cc1-c1ccnnc1 [Example 16, 3-Methyl-4-[2-pyridazin-4-yl-4-(trifluoromethyl)phenoxy]-N-1,2,4-thiadiazol-5-ylbenzenesulfonamide]"
5,2.6,"CN1CC(n2nccc2-c2cc(C(F)(F)F)ccc2Oc2cc(F)c(S(=O)(=O)Nc3nncs3)cc2Cl)C1 [Example 14, 5-Chloro-2-fluoro-4-{4-trifluoromethyl-2-[1-(1-methylazetidin-3-yl)-1H-pyrazol-5-yl]phenoxy}-N-1,3,4-thiadiazol-ylbenzenesulfonamide]"
